Several values for one entry are separate records, joined by “and”; a condition that tells them apart may be missing. Equal entries are not always repeated.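 A five-concentration, 48-hour dose response in 96-well plates underlies each endpoint, interpolated linearly between surrounding concentrations. Abbreviation: GI50, concentration required for 50% inhibition of growth. TGI: concentration producing complete growth inhibition.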
Legend:
Assay in all cases: DTP human tumour cell line panel, 48 h
SF-268 CNS = tested on: SF-268 CNS
MOLT-4 leukemia = tested on: MOLT-4 leukemia
NCI-H522 lung = tested on: NCI-H522 lung
SK-OV-3 ovarian = tested on: SK-OV-3 ovarian
LOX IMVI melanoma = tested on: LOX IMVI melanoma
SW-620 colon = tested on: SW-620 colon
KM12 colon = tested on: KM12 colon
SK-MEL-2 melanoma = tested on: SK-MEL-2 melanoma
CAKI-1 renal = tested on: CAKI-1 renal
SNB-75 CNS = tested on: SNB-75 CNS

| Structure (SMILES) | GI50 (SF-268 CNS) | TGI (SF-268 CNS) | GI50 (MOLT-4 leukemia) | TGI (MOLT-4 leukemia) | GI50 (NCI-H522 lung) | TGI (NCI-H522 lung) | GI50 (SK-OV-3 ovarian) | TGI (SK-OV-3 ovarian) | GI50 (LOX IMVI melanoma) | TGI (LOX IMVI melanoma) | GI50 (SW-620 colon) | TGI (SW-620 colon) | GI50 (KM12 colon) | TGI (KM12 colon) | GI50 (SK-MEL-2 melanoma) | GI50 (CAKI-1 renal) | TGI (CAKI-1 renal) | GI50 (SNB-75 CNS) | TGI (SNB-75 CNS) | TGI (SK-MEL-2 melanoma) |
| --- | --- | --- | --- | --- | --- | --- | --- | --- | --- | --- | --- | --- | --- | --- | --- | --- | --- | --- | --- | --- |
| O=S(=O)(Cc1ccc(Cl)cc1Cl)c1ccc(Cl)cc1 | 0.827 µM | > 100 µM | 1.14 µM | > 100 µM | 0.282 µM | 2.27 µM | 1.47 µM | > 57.7 µM | 0.587 µM | > 100 µM | 0.365 µM | > 100 µM | 0.372 µM | > 100 µM | 0.326 µM | 0.52 µM | > 100 µM | 0.732 µM | > 27.5 µM | – |
| Cc1cc(Cl)cc2c(N=Nc3ccccc3[N+](=O)[O-])c(O)[nH]c12 | – | > 100 µM | – | > 100 µM | – | > 100 µM | – | > 100 µM | – | > 100 µM | – | > 100 µM | – | > 100 µM | – | – | > 100 µM | – | > 100 µM | > 100 µM |
| COc1cc2c(cc1O)-c1c(cnn1-c1ccc([N+](=O)[O-])cc1)CCC2 | – | > 100 µM | – | 6.2 µM | – | 40.9 µM | – | > 100 µM | – | 26.5 µM | – | 91.3 µM | – | 31.7 µM | – | – | 38.5 µM | – | > 100 µM | 37.4 µM |
| O=C1CC(c2cccc(O)c2)C2(C(=O)NC(=S)NC2=O)C(c2cccc(O)c2)C1 (stereo not given) | > 100 µM | > 100 µM | > 100 µM | > 100 µM | > 100 µM | > 100 µM | > 100 µM | > 100 µM | > 100 µM | > 100 µM | > 100 µM | > 100 µM | > 100 µM | > 100 µM | > 100 µM | > 100 µM | > 100 µM | > 100 µM | > 100 µM | > 100 µM |
| CC(=O)O[C@@]12CO[C@@H]1C[C@H](O)[C@@]1(C)C(=O)[C@H](O)C3=C(C)[C@@H](OC(=O)[C@H](O)[C@@H](NC(=O)OC(C)(C)C)c4ccccc4)C[C@@](O)([C@@H](OC(=O)c4ccccc4)[C@H]21)C3(C)C | 0.0677 µM and 0.0392 µM | 77.6 µM | 0.0337 µM and 0.00877 µM | 50.1 µM | 0.00086 µM | – | 0.0521 µM and < 0.0174 µM | 0.0491 µM | 0.00308 µM and 0.00368 µM | 42.1 µM | 0.00764 µM and 0.00646 µM | > 68.4 µM | 0.00708 µM and 0.0021 µM | > 62.2 µM | 0.0269 µM | 0.146 µM | 81.8 µM | 0.0187 µM and 0.0127 µM | 0.0637 µM | – |
| C/C=C/C/C=C/CCC(=O)[C@H]1O[C@H]1C(N)=O | – | 39.3 µM | 8.56 µM | 52 µM | – | 25.6 µM | 27 µM | > 72.7 µM | 8.38 µM | 21.5 µM | 11.9 µM | 27.9 µM | 17.2 µM | 32 µM | 15.9 µM | 13.4 µM | 36.5 µM | 10 µM | 25 µM | 32.5 µM |
| COc1cc(C(=O)N2N=C(c3ccc(S(C)(=O)=O)cc3)CC2c2ccco2)cc(OC)c1OC (stereo not given) | 8.93 µM | > 100 µM | 3.08 µM | > 100 µM | 3.95 µM | > 61.6 µM | 4.9 µM | > 100 µM | 5.85 µM | > 100 µM | 3.62 µM | > 100 µM | 3.51 µM | > 100 µM | 8.68 µM | 4.94 µM | > 90.8 µM | 2.91 µM | > 46 µM | > 100 µM |
